Tested on: U-87 cells (IDH1 wild-type)
Test: Cytotoxicity, sphere culture with LDL, combination with ezetimibe (ATP)
Assay type: cell-based, human
Conditions: 7 days, LDL 5 µg/mL
Protocol: U-87 cells were cultured for 7 days in sphere medium supplemented with LDL at a concentration of 5 µg/mL, with either ezetimibe (a cholesterol absorption inhibitor) added at 3.3, 10, or 30 µM, Compound 1 added at 1 µM, or a combination of both agents. Cell viability was calculated in the same manner as in Example 12, and the cytotoxic effects of each treatment were compared between single-agent and combination conditions.

SMILES: CC1(C)Oc2cc(Cl)ccc2[C@@H]2OCC3(CCN(CCn4ccnc4)CC3)C[C@H]21 [Compound 1, (4'aR,10'bR)-8'-chloro-1-[2-(1H-imidazol-1-yl)ethyl]-5',5'-dimethyl-4'a,10'b-dihydro-2'H,4'H,5'H-spiro[piperidine-4,3'-pyrano[3,2-c][1]benzopyran] diphosphate]
- cytotoxicity of the combination of Compound 1 and ezetimibe (Compound 1 1 µM + ezetimibe 3.3, 10, or 30 µM): potent cytotoxic effects
- cytotoxicity, single agent (Compound 1 at 1 µM): low cytotoxicity

Source: patent EP4806435A1, “DIHYDROCHROMENE-DERIVATIVE-CONTAINING THERAPEUTIC AGENT FOR CANCER” (Sumitomo Pharma Co., Ltd., priority 2023, dated 2025)
